Data from patent US6664285B1, “Use of cell membrane penetrating indigoid bisindole derivatives” (priority 1999, dated 2003).
Where two headings read alike, the source gives them in different places.

Tests used:
[1] = system: MEXF514 (melanoma); assay: Colony-forming assay; format: cell-based, human
[2] = system: MCF7X (mammary); assay: Colony-forming assay; format: cell-based, human; details: for IC50: read-out: IC50 colony formation
[3] = system: MEXF515LX (melanoma); assay: Colony-forming assay; format: cell-based, human; details: for IC50: read-out: IC50 colony formation
[4] = system: BXF1301 (bladder); assay: Colony-forming assay; format: cell-based, human; details: for IC50: read-out: IC50 colony formation
[5] = system: LXFA289 (lung adenocarcinoma); assay: Colony-forming assay; format: cell-based, human; details: for IC50: read-out: IC50 colony formation
[6] = system: human tumor xenograft LXFL 529; assay: In vivo testing in nude mice bearing subcutaneous tumor xenograft
Procedure: Compound of Examples 1, 4, 6, 8, 9 and 10 were subjected to in vivo testing in nude mice bearing subcutaneously growing human tumor xenograft LXFL 529. The indigoid bisindole derivatives were applied intraperitoneally to the animals in doses and according to the schedule as described in Table 4.
The experiments were run for 21 or 28 days. Anti-tumor activity was evaluated comparing the median tumor volume relative to control, expressed as %T/C, wherein T is the test group and C the vehicle control group. In Table 4, anti-tumor activity is given according to an activity rate scale.

[7] = system: large-cell lung carcinoma xenograft line LXFL 529 L; assay: Tumor cell growth inhibition, sulforhodamine B (SRB) assay; format: cell-based, human; details: LXFL529L; three days incubation, serum containing medium
[8] = system: mammary carcinoma line MCF-7; assay: as above; format: cell-based, human; details: MCF7; three days incubation, serum containing medium
[9] = system: MX1 (mammary); assay: Colony-forming assay; format: cell-based, human; details: for IC50: read-out: IC50 colony formation
[10] = system: MEXF989 (melanoma); assay: Colony-forming assay; format: cell-based, human
[11] = system: LXFL 529L cells; assay: Cellular uptake into LXFL 529L cells; details: for distribution cellular organelles / distribution cytosol: 2 hours incubation
Procedure: The compounds of Examples 1, 6 and 8 and Comparative Examples 1 and 2 were investigated with respect to their ability to penetrate LXFL 529L cells having the passage numbers P23 to P39. The amounts of the substances taken up by the cells are given depending on the concentration of the substance within the incubation medium. The time of incubation was 2 hours in all of the experiments. Furthermore, the distribution of the substance which was taken up by the cells in the cytosol and the cellular organelles (particular) was estimated and is given in the intermediate column of Table 2. Tumor cell growth inhibition was determined by the sulfo-rhodamine B assay (SRB assay) according to Skehan et al., J. Natl. Cancer Institute 82, pages 1107-1112 (1990). Incubation was conducted for three days in serum containing medium. Tumor cell lines tested were a large-cell lung carcinoma xenograft line LXFL 529 L and the mammary carcinoma line MCF-7.

[12] = system: CXF280 (colon); assay: Colony-forming assay; format: cell-based, human; details: for IC50: read-out: IC50 colony formation
[13] = system: OVXF1355 (ovarian); assay: Colony-forming assay; format: cell-based, human
[14] = system: LXFL529 (lung large-cell); assay: Colony-forming assay; format: cell-based, human
[15] = system: HT29X (colon); assay: Colony-forming assay; format: cell-based, human; details: colon HT29X; for IC50: Homo sapiens, read-out: IC50 colony formation
[16] = system: LXFS650 (lung small-cell); assay: Colony-forming assay; format: cell-based, human
[17] = system: PAXF736 (pancreatic); assay: Colony-forming assay; format: cell-based, human
[18] = system: PAXF546 (pancreatic); assay: Colony-forming assay; format: cell-based, human
[19] = system: OVXF1353 (ovarian); assay: Colony-forming assay; format: cell-based, human
Procedure: (§1) The anti-tumor activity of the compounds was evaluated via a colony-forming-assay as described e.g. by D. P. Berger et al. in Annals of Oncology 1, pages 333-341 (1 990), “The clonongenic assay with human tumor xenografts, evaluation, predictive values and application for drug screening”.
(§2) The experiments were conducted using various tumor cell lines, in particular mammary carcinoma (MAXF), lung adenocarcinoma (LXFA), large-cell lung carcinoma (LXFL), small-cell lung carcinoma (LXFS), colon carcinoma (CXF), melanoma (MEXF), pancreatic carcinoma (PAXF), renal carcinoma (RXF), ovarian carcinoma (OVXF) and bladder carcinoma (BXF).

[20] = system: OVXF899 (ovarian)
Procedure: as §1, §2

[21] = read-out: IC50 colony formation
[22] = 100 mg/kg/day i.p., days 1, 4, 8, 11, 15, 18, 22
[23] = 300 mg/kg/day i.p., days 1, 4, 8, 11, 15, 18, 22
[24] = concentration of incubation 10 μM
[25] = concentration of incubation 20 μM
[26] = Homo sapiens, read-out: IC50 colony formation

| Structure (SMILES) | IC70 colony formation [2] [µM] | IC50 [2] [µM] | IC70 colony formation [3] [µM] | IC50 [3] [µM] | IC70 colony formation [4] [µM] | IC50 [4] [µM] | IC70 colony formation [5] [µM] | IC50 [5] [µM] | activity rating [6, 22] | activity rating [6, 23] | IC70 colony formation [9] [µM] | IC70 colony formation [10] [µM] | IC70 colony formation [12] [µM] | IC50 [12] [µM] | IC70 colony formation [14] [µM] | IC50 [15] [µM] | IC70 colony formation [15] [µM] | other results |
| --- | --- | --- | --- | --- | --- | --- | --- | --- | --- | --- | --- | --- | --- | --- | --- | --- | --- | --- |
| O=C1Nc2ccc([N+](=O)[O-])cc2C1=C1Nc2ccccc2C1=O [Example 7, 5-Nitroindirubin] | 15.1 | < 1 | – | – | – | – | – | – | – | – | – | – | – | – | – | – | – | IC70 colony formation [1]: >10.0 µM; IC50 [1, 21]: 4.9 µM |
| O=C1Nc2ccccc2/C1=C1/Nc2ccccc2/C1=N\O [Example 8, Indirubin-3′-oxime] | – | – | 5.7 | 2.8 | 16.1 | 10.6 | 3.4 | 0.9 | − (inactive T/C > 50%) | − (inactive T/C > 50%) | 9.2 | 2.6 | 12.6 | 8 | – | – | – | IC50 [7]: 3 ± 0.5 µM; IC50 [8]: 3.3 ± 0.4 µM; IC50 [9]: 7.7 µM; IC50 [10, 21]: 1 µM; ability to penetrate the cellular membrane / uptake compared to indirubin (Example 1) (in words) ([11]; LXFL 529L cells): slightly improved; uptake by the tumor cells (in words) ([11]; LXFL 529L cells): taken up by the tumor cells; distribution cellular organelles [11, 24]: 57 ± 14.1%; distribution cytosol [11, 24]: 43 ± 14.1%; distribution cellular organelles [11, 25]: 56 ± 15.6%; distribution cytosol [11, 25]: 44 ± 15.6% |
| O=C1Nc2ccc(I)cc2/C1=C1/Nc2ccccc2/C1=N\O [Example 9, 5-Iodoindirubine-3′-oxime] | 10.4 | 2.4 | 4.9 | 2.6 | 5.8 | 4 | 0.7 | 0.05 | − (inactive T/C > 50%) | + (tumor inhibition T/C > 25-50%) | – | – | 16.3 | 10.7 | – | – | – | – |
| O=C1Nc2ccccc2/C1=C1\C(=O)Nc2ccccc21 [Example 10, Isoindigo] | <1.0 | – | – | – | 8.2 | – | – | – | – | – | <1.0 | <1.0 | <1.0 | – | 4.5 | < 1 | <1.0 | IC70 colony formation [13]: <1.0 µM; IC50 [13, 26]: < 1 µM; IC50 ([4]; Homo sapiens): 6 µM; IC50 ([14]; Homo sapiens, LXFL 529, read-out: IC50 colony formation): 2.6 µM; IC50 ([2]; Homo sapiens): < 1 µM; activity rating ([6]; 30 mg/kg/day i.p., days 1-5): − (inactive T/C > 50%); activity rating ([6]; 100 mg/kg/day i.p., days 1-5): − (inactive T/C > 50%); activity rating ([6]; 300 mg/kg/day i.p., days 1-5): + (tumor inhibition T/C > 25-50%); IC70 colony formation [16]: <1.0 µM; IC50 [16, 26]: < 1 µM; IC70 colony formation [17]: <1.0 µM; IC50 [17, 26]: < 1 µM; IC50 ([9]; Homo sapiens): < 1 µM; IC50 ([10]; Homo sapiens, MEXF 989, read-out: IC50 colony formation): < 1 µM; IC70 colony formation [18]: <1.0 µM; IC50 [18, 26]: < 1 µM; IC50 ([12]; Homo sapiens): < 1 µM |
| O=C1/C(=C2\Nc3ccccc3C2=O)Nc2ccccc21 [Example 11, Indigo] | – | – | – | – | – | – | 12.3 | – | – | – | – | – | – | – | – | 3.3 | 26.1 | IC50 ([5]; Homo sapiens): 3.5 µM; IC70 colony formation [19]: 16.7 µM; IC50 [19, 26]: 3.9 µM |
| O=C1Nc2ccc(S(=O)(=O)NCCO)cc2C1=C1Nc2ccccc2C1=O [Example 13, Indirubin-5-sulfone(2-hydroxyethyl)amide] | 2.1 | 0.6 | 0.4 | < 0.1 | – | – | 2.6 | 1.1 | – | – | – | – | 17.3 | 12 | 5.9 | – | – | IC50 [14, 21]: 3.4 µM; IC70 colony formation [20]: 0.4 µM; IC50 [20, 21]: 0.3 µM |
